Measured values taken from patent US12338199B2, “Bis-octahydrophenanthrene carboxamides and protein conjugates thereof” (REGENERON PHARMACEUTICALS, INC., priority 2017, dated 2025).

What was measured:
LXR alpha = target: T1, LXR alpha (Homo sapiens, UniProt Q13133); assay: LanthaScreen TR-FRET LXR alpha Coactivator Assay (cell-free binding); conditions: TR-FRET, 12-point curve; read-out: Cell free binding LXRα IC50
T1 construct: LXR alpha or beta LBD-GST; purchased ThermoFisher PV4655
T1 sequence (Q13133 209-447 limits assumed): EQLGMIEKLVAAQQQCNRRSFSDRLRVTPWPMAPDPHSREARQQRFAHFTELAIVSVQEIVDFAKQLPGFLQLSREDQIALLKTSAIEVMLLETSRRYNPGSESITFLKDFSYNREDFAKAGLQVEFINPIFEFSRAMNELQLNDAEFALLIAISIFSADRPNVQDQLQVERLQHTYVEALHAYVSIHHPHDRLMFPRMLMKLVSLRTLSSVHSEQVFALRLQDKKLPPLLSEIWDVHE

LXR beta = target: T2, LXR beta (Homo sapiens, UniProt P55055); assay: LanthaScreen TR-FRET LXR beta Coactivator Assay (cell-free binding); conditions: TR-FRET, 12-point curve; read-out: Cell free binding LXRβ IC50
T2 construct: LXR alpha or beta LBD-GST; purchased ThermoFisher PV4658
T2 sequence (P55055 222-460 limits assumed): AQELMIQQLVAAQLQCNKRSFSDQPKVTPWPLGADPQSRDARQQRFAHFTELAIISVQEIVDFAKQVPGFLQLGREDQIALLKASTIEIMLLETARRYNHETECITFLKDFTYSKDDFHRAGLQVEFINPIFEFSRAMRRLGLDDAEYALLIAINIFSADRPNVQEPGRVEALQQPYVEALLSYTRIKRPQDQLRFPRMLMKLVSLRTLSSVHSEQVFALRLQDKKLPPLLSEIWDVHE

THP1/LXR-Luc cells = assay: THP1/LXR-Luc luciferase reporter bioassay; type: cell-based; conditions: Homo sapiens, THP-1, 48 hours
Outline: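 THP1 cells stably carrying an LXR-response-element firefly luciferase reporter were seeded at 30,000/well in RPMI/10% FBS and given 3-fold dilutions (100 nM to 0.01 nM) for 48 or 72 h. Luminescence was read with One-Glo. EC50 came from a 4-parameter fit of a 10-point curve, and fold activation was taken relative to maximal free-payload activation.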

ABCG1 = ABCG1 mRNA induction in differentiated THP-1 macrophages (TaqMan); type: cell-based, human; conditions: THP1 macrophages, 24-hour treatment; magnitude in words
Description: To determine the ability of LXR agonists to activate ABCA1 and ABCG1 genes, the mRNA levels of these two genes in differentiated macrophages was measured. […] Cells were differentiated into macrophages by treatment with 100 nM Phorbol-12 myristate 13-acetate (Sigma, # P8139), which was added to the media described above, for 72 hours. […] Chloroform was then used for phase separation. The aqueous phase, containing total RNA, was purified using MagMAX™-96 for Microarrays Total RNA Isolation Kit (Ambion, Cat # AM1830) and reverse-transcribed into cDNA using SuperScript® VILO™ Master Mix (Invitrogen, Cat #11755050) as per the manufacturer's instructions. TaqMan® was performed using Gene Expression Master Mix, the ABI 7900HT Sequence Detection System (Applied Biosystems) and the primers and probes indicated below in Table 9. The GAPDH gene was used as the internal control gene to normalize any cDNA input differences.

In the case of `C[C@]1(C(=O)NC(=O)[C@@]2(C)CCC[C@]3(C)c4cc(O)ccc4CC[C@@H]23)CCC[C@]2(C)c3cc(N)ccc3CC[C@@H]12` [Compound 9d, (1S,4aS,10aR)—N-[(1S,4aS,10aR)-6-Amino-1,4a-dimethyl-1,2,3,4,4a,9,10,10a-octahydrophenanthrene-1-carbonyl]-6-hydroxy-1,4a-dimethyl-1,2,3,4,4a,9,10,10a-octahydrophenanthrene-1-carboxamide], the IC50 (LXR alpha) is reported as < 10 nM, the IC50 (LXR beta) is reported as < 10 nM and the EC50 (THP1/LXR-Luc cells; read-out: Activation of THP1/LXR-Luc cells: EC50) is reported as ≤ 1 nM. For the same compound, the Emax (THP1/LXR-Luc cells; relative to maximum activation of free payload 9d, read-out: Activation of THP1/LXR-Luc cells: Fold of activation) was > 75% and the “ABCG1 induction EC50” value (ABCG1) was “sub-picomolar”.
